# Measurements as given in patent US12409161B2, “Compound for treating neurodegenerative disorders” (FUDAN UNIVERSITY, priority 2019, dated 2025).
# What was measured:
# [1] = target: T1, mutant ATXN1 protein (His-ATXN1-Q92) (Homo sapiens, UniProt P54253, INS208QQQQQQQQQQQQQQQQQQQQQQQQQQQQQQQQQQQQQQQQQQQQQQQQQQQQQQQQQQQQQQQQQQQQQQQQQQQQQQQQ); test: HTRF of mutant ATXN1 level in HEK293T cells expressing His-ATXN1-Q92; type: cell-based; conditions: 100 nM for 2 days, HTRF anti-His-Tb/MW1-D2
# T1 construct: expressed in transfected cells; host or cells: HEK293T (ATCC, CRL-3216)
# [2] = target: T2, wtHTT (Mus musculus, UniProt P42859); conditions: Hdh^Q140/Q7 mouse cortical neurons, treated 2 days, Western-blots (antibody 2166)
# Protocol: (§1) Primary cultured cortical neurons: The brains of Hdh^Q140/Q7 and Hdh^Q7/Q7 newborn mice (P0) were dissected, digested, dissociated, and cultured.
# (1) The primary cultured Hdh^Q140/Q7 and Hdh^Q7/Q7 mouse cortical neuron cells were treated with the compound for 2 days.
# [3] = system: mHTT; test: Western-blot of HTT levels in primary cultured Hdh^Q140/Q7 mouse cortical neurons; type: cell-based; conditions: treated 2 days, Western-blots (antibody 2166)
# Protocol: as §1
# (§2) (1) The primary cultured Hdh^Q140/Q7 and Hdh^Q7/Q7 mouse cortical neuron cells were treated with the compound for 2 days. Then the levels of mHTT and wtHTT were detected by Western-blots (antibody 2166) (FIG. 4 and FIG. 5). […]
# [4] = target: T3, human HTT full-length protein (Q128) (Homo sapiens, UniProt P42858); test: mHTT level in heads of Huntington's disease Drosophilae (HTRF); type: in vivo, Drosophila; conditions: food with 10 μM in 400 μL DMSO, 6 days, head protein, HTRF 2B7/MW1
# T3 construct: transgenic Drosophilae expressing human HTT full-length protein (Q128); tissue Bloomington Drosophila Stock Center (fly lines); host or cells: heads of elav-GAL4 x UAS-fl-HTT-Q128 Drosophila
# Protocol: Crosses were set up between virgin female Drosophilae carrying elav-GAL4 driver and the UAS-fl-HTT-Q16 or UAS-fl-HTT-Q128 male Drosophilae to generate a transgenic Drosophilae driven by elav-GAL4 to express human HTT full-length protein (Q16) or (Q128) in the nervous system.
# The negative control group was given the corresponding solvent DMSO, and the positive drug groups was given the corresponding positive drug.
# Drosophilae were kept in standard food at 25° C. The newly hatched Drosophilae were transferred to vials with food containing the positive drug (10 μM in 400 μL DMSO) or DMSO for control. The corn food was changed every other day.
# The mHTT level was measured by HTRF (antibody pair: 2B7/MW1), where each sample included head proteins from five Drosophila (FIG. 14).
# [5] = target: T4, mutant ATXN3 protein (ATXN3-Q74) (Homo sapiens, UniProt P54252, G306R/INS305QQQQQQQQQQQQQQQQQQQQQQQQQQQQQQQQQQQQQQQQQQQQQQQQQQQQQQQQQQQQQQQQ/V212M); test: Western-blot of ATXN3 level in SCA3 patient fibroblasts (Q74); type: cell-based; conditions: 100 nM compound 1 or 50 nM compound 2 for 2 days, Western-blots
# T4 construct: endogenous in cells; host or cells: SCA3 patient fibroblasts (Q74)
# Protocol: (§3) Some primary patient fibroblasts and wild-type cells are from HD patients (Q47, Q55) of the Mongolian Huntington's disease family and healthy controls (WT, Q19). SCA3 cell line was from patient (Q74). The HD Q68 fibroblast cell line was from Coriell Cell Repositories (Camden, N.J., USA). Immortalized fibroblasts and induced stem cells (iPSCs) are prepared from primary fibroblasts. HEK293T cells were from ATCC.
# (§4) Then the levels of mutant ATXN3 protein (ATXN3-Q74, SEQ ID NO: 3) and wild-type ATXN3 protein (ATXN3-Q27, SEQ ID NO: 4) were determined by Western-blots (FIG. 22). […] Therefore, the compound can be used to treat SCA3.
# [6] = target: T5, full-length mHTT (flHTT-Q73) (Homo sapiens, UniProt P42858, INS38QQQQQQQQQQQQQQQQQQQQQQQQQQQQQQQQQQQQQQQQQQQQQQQQQQQQ); test: OI-RD detection of affinity to full-length HTT; type: binding
# T5 construct: protein A (N, cleaved yes); made in house; host or cells: human embryonic kidney E293 cells
# Protocol: (1) The human HTT gene (GenBank: NM_002111.8) with (CAG)23 or (CAG)73 was synthesized de novo by Genewiz Inc. The human HTT gene was cloned into the modified pCAG vector (from Addgene) with N-terminal protein A tag.
# The protein is purified with IgG monoclonal antibody-agarose (Smart-lifesciences, SA030010), digested with TEV protease to remove the protein A tag, and further purified with Mono Q and Superose 6 (5/150 GL) columns from GE healthcare. Validation is conducted using Coomassie blue staining and Western-blots.
# [7] = target: T2, wtHTT; test: Western-blot of HTT levels in primary cultured Hdh^Q7/Q7 mouse cortical neurons; type: cell-based; design: endogenous in cells; host or cells: primary cortical neurons of newborn Hdh Q140/Q7 or Hdh Q7/Q7 mice; conditions: treated 2 days, Western-blots (antibody 2166)
# Protocol: as §1, §2
# [8] = system: HD patient iPSC-derived neurons (Q47); test: Neuronal apoptosis of HD patient iPSC-derived neurons after BDNF removal (TUBB3 immunostaining, caspase-3 activity); type: cell-based, human; conditions: 100 nM compound 1 or 50 nM compound 2 for 1 day, then BDNF removal
# Protocol: Immunofluorescence: cells were washed, fixed, permeabilized and blocked, then incubated with primary antibody overnight at 4° C., then washed three times with blocking buffer, and incubated with secondary antibody for 1 hour at room temperature, stained with DAPI, and mounted. Images were taken by Zeiss Axio Vert A1 confocal microscope. TUBB3 or co-localization was analyzed using ImageJ.
# Then the cells were stressed (by BDNF removal).
# Neuronal specific tubulin marker TUBB3 […]. The TUBB3 signal covered area was normalized to the cell nuclei counts, and the data was normalized to the wild type controls to analyze neuronal apoptosis (FIG. 12).
# NucView 488 (Biotium, 30029) was used to detect active caspase-3. After removing BDNF, Incucyte (Essen Bioscience, IncuCyte FLR) was used to capture images every 3 hours in the incubator, which were analyze with Incucyte 2011A software. Three batches were tested and the results were consistent (FIG. 13).
# [9] = target: T6, mHTT (Homo sapiens, UniProt P42858, INS38QQQQQQQQQQQQQQQQQQQQQQQQQQ); test: HTRF of mHTT in HD patient iPSC-derived neurons (Q47); type: cell-based
# T6 construct: endogenous in cells; host or cells: HD patient iPSC-derived neurons (Q47)
# [10] = target: T7, wild-type ATXN3 protein (ATXN3-Q27) (Homo sapiens, UniProt P54252, G306R/INS305QQQQQQQQQQQQQQQQQ/V212M); test: Western-blot of ATXN3 level in fibroblasts; type: cell-based; conditions: 100 nM compound 1 or 50 nM compound 2 for 2 days; Western-blots
# T7 construct: endogenous in cells; host or cells: wild-type fibroblasts (Q27), and possibly the normal allele of SCA3 patient fibroblasts
# Protocol: as §3, §4
# [11] = system: Q72-GFP; test: Level of polyQ-GFP fusion protein in HEK293T cells (Incucyte fluorescence counting); type: cell-based; conditions: 100 nM compound 1 or 50 nM compound 2 for 2 days
# Description: (§5) The inventors used HEK293T cells exogenously expressing polyQ-GFP fusion proteins (Q72-GFP or Q25-GFP) to detect compounds that can control the level of proteins containing expanded polyglutamine in the cells. The method was as follows:
# (§6) (1) PolyQ-GFP cDNA sequence (expressing Met-polyQ-GFP, wherein polyQ was Q72 or Q25) was synthesized de novo and subcloned into pcDNA vector. It was transfected into HEK293T cells (ATCC, CRL-3216) through forward transfection to obtain Q72-GFP expressing cells and Q25-GFP expressing cells, respectively. And the same method was used to obtain cells expressing Q53-GFP, cells expressing Q46-GFP, and cells expressing Q38-GFP.
# (§7) (3) The Q72-GFP expressing cells and Q25-GFP expressing cells obtained in step (1) were used. […] Then the level of polyQ-GFP was measured by Incucyte fluorescence counting (FIG. 1).
# [12] = system: Q25-GFP; test: as above; type: cell-based; conditions: 100 nM compound 1 or 50 nM compound 2 for 2 days
# Description: as §5, §6, §7
# [13] = system: Q25-GFP; conditions: MST; 20 mM HEPES, pH 7.4, 150 mM NaCl; protein 500 nM
# [14] = In vivo compound detection in brain tissues of ip-injected mice (LC-MS/MS); conditions: mouse, 2 hours after ip-injection (0.5 mg/kg), read-out: level of compound reached the brain tissue
# Protocol: (§8) Experimental method: The compound or control DMSO was diluted with 0.9% NaCl intravenous infusion solution to 0.05 μg/μL. One ip-injection (0.5 mg/kg) was conducted per day. After 14 days of injection, tissue extraction or behavioral experiment were conducted.
# In vivo compound detection in brain tissues of ip-injected mice: 2 hours after ip-injection of DMSO or compound in mice, the brain was dissected, weighed, and the compound in the brain tissue was extracted, analyzed with UPLC-MS (Acquity Ultra Performance Liquid Chromatography System, Acquity UPLC BEH C18 (1.7 μm, 2.1×50 mm) column and Xevo TQ-S mass spectrometer, Waters Corporation, Milford, MA, USA) for LC-MS/MS analysis. […] The compound of the present invention can be delivered to the brain of mice through the BBB smoothly, which potentially facilitates oral administration of the compound.
# [15] = system: mHTT; test: Intracerebroventricular injection: mHTT and wtHTT levels in cortices of HD mice (Western-blots); type: in vivo, mouse; conditions: Hdh^Q140/Q7 mice; icv 2 μL of 25 μM per day, 10 days; Western-blots (antibody 2166)
# Protocol: Mice expressing wild-type HTT gene (Hdh^Q7/Q7) were from the Marian Difiglia laboratory of Massachusetts General Hospital, Harvard University.
# Experimental animals: Hdh^Q140/Q7 mice (3 months old), 4 in each group.
# Each test includes three repetitions for each sample, and the mean values was calculated (FIG. 17).
# [16] = system: mHTT; test: HTRF of mHTT in HD patient immortalized fibroblasts; conditions: at different doses (FIG. 10)
# Protocol: Homogeneous time-resolved fluorescence (HTRF) analysis: the cell or tissue lysate was diluted with the original lysis buffer PBS+1% (v/v) Triton X-100+1×cOmplete™ protease inhibitor to lyse the sample, then HTRF assay buffer (50 mM NaH2PO4, 400 mM NaF, 0.1% BSA, 0.05% (v/v) Tween-20, 1% (v/v) Triton X-100, pH 7.4) was used to dilute the specified antibody pair for detection. In HTRF buffer, the donor antibody concentration was 0.023 ng/μL and the acceptor antibody concentration was 1.4 ng/μL.
# [17] = system: mHTT; test: Intraperitoneal injection: mHTT and wtHTT levels in cortices and striata of HD mice (Western-blots); type: in vivo, mouse; conditions: Hdh^Q140/Q7 mice, ip 0.5 mg/kg per day, 14 days
# Protocol: as §8
# (1) 13 Hdh^Q140/Q7 mice (5 months old) were randomized into 2 groups.
# One ip-injection was conducted per day. After 14 days of injection, the protein was extracted and the levels of mHTT and wtHTT in the cortices of HD mice were detected by Western-blots (FIG. 18).
# (2) A total of 13 mice Hdh^Q140/Q7 mice (10 months old) were used, 6-7 mice in each group. According to the above method, the mouse brain striatum neuronal protein was extracted and the levels of mHTT and wtHTT were detected by Western-blots (FIG. 19).
# [18] = system: mHTT aggregates; test: mHTT aggregates in cortices of Hdh^Q140/Q7 mice (dot-blot, HTRF 4C9/4C9); type: in vivo, mouse; conditions: ip-injection, dot-blot 4C9 and HTRF 4C9/4C9
# Protocol: as §8
# (3) mHTT aggregates in the cortices of Hdh^Q140/Q7 mice were detected by dot-blot experiment (antibody: 4C9, bar plot showing the results of two repetitions) and HTRF (antibody pair: 4C9/4C9). Sampling was repeated for each mouse two to three times on average (FIG. 20).
# [19] = target: T8, normal ATXN3 protein (MBP-ATXN3-Q28) (Homo sapiens, UniProt P54252, INS305QQQQQQQQQQQQQQQQQQ); test: MST detection of affinity to ATXN3; type: binding; conditions: method in 2.2
# T8 construct: His8; made in house; host or cells: Escherichia coli Rosetta(DE3)pLysS
# Protocol: (1) His8 tag and TEV protease cleavage site is added in pMal-C2x plasmid (from New England Biolabs) to prepare prokaryotic expression vector pMBP. The ATXN3 gene (GenBank: NM_001127696.2) is edited to control the length of the expanded polyglutamine, the gene is amplified and cloned into the prepared pMBP to obtain the pMBP-ATXN3-Q28 and pMBP-ATXN3-Q68 plasmids with polyQ repeated 28 and 68 times, respectively.
# (2) The expression plasmids pMBP-ATXN3-Q28 and pMBP-ATXN3-Q68 were introduced into Escherichia coli Rosetta(DE3)pLsyS for expression. Preliminary purification was conducted with HisTrap HP column (GE Healthcare, 17524701). The product was concentrated by ultrafiltration and then further purified with Superose 6 Increase 10/300 GL size exclusion column (GE Healthcare).
# (3) As verified by SDS-PAGE, the purity of the prepared human MBP-ATXN3-Q28 and MBP-ATXN3-Q68 exceeds 98%.
# T1 sequence (P54253 with tags, fused parts or gaps with the stated changes): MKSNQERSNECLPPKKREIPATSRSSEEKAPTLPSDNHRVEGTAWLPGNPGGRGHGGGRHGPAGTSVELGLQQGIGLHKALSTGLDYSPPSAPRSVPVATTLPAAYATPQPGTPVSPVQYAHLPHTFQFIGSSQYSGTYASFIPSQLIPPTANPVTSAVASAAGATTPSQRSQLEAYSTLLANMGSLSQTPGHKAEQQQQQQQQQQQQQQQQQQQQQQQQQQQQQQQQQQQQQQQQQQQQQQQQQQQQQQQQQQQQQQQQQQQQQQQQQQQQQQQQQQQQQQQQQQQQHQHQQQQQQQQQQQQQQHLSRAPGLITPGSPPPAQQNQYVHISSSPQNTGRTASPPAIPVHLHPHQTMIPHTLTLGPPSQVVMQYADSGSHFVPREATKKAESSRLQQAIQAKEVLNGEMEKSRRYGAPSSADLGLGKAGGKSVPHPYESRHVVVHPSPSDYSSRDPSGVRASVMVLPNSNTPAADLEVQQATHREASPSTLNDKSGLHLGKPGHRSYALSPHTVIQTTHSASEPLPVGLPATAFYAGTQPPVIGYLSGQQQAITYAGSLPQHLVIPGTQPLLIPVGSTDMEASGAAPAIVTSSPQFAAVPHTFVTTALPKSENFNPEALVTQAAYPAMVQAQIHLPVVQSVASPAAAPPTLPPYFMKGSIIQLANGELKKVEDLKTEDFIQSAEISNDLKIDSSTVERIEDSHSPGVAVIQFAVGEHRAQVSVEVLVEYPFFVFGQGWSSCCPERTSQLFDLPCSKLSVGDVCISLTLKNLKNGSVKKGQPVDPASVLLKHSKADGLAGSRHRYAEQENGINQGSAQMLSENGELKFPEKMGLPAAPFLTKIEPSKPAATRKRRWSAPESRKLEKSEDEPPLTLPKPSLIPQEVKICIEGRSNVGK
# T4 sequence (P54252 with tags, fused parts or gaps isoform P54252-1 with the stated changes): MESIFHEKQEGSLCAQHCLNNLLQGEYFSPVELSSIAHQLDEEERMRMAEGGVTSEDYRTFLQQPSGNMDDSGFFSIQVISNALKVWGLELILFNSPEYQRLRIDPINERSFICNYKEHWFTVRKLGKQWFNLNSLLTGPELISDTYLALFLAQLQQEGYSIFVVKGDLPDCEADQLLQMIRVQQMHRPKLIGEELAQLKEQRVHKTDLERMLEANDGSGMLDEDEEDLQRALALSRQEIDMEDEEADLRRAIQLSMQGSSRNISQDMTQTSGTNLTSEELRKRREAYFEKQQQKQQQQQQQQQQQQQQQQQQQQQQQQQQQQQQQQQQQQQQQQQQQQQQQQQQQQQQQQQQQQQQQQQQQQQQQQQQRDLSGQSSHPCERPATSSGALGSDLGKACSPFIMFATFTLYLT
# T7 sequence (P54252 with tags, fused parts or gaps isoform P54252-1 with the stated changes): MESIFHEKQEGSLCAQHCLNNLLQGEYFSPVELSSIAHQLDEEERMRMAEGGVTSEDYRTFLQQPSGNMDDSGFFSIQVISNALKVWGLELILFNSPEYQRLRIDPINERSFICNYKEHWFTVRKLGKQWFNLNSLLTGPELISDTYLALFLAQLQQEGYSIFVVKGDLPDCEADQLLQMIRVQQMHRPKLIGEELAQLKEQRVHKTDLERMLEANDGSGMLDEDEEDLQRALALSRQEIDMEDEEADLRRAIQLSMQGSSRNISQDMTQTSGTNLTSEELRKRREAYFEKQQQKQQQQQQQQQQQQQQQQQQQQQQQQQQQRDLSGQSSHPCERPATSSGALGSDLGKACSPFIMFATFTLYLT
# T2 sequence (P42859 whole entry): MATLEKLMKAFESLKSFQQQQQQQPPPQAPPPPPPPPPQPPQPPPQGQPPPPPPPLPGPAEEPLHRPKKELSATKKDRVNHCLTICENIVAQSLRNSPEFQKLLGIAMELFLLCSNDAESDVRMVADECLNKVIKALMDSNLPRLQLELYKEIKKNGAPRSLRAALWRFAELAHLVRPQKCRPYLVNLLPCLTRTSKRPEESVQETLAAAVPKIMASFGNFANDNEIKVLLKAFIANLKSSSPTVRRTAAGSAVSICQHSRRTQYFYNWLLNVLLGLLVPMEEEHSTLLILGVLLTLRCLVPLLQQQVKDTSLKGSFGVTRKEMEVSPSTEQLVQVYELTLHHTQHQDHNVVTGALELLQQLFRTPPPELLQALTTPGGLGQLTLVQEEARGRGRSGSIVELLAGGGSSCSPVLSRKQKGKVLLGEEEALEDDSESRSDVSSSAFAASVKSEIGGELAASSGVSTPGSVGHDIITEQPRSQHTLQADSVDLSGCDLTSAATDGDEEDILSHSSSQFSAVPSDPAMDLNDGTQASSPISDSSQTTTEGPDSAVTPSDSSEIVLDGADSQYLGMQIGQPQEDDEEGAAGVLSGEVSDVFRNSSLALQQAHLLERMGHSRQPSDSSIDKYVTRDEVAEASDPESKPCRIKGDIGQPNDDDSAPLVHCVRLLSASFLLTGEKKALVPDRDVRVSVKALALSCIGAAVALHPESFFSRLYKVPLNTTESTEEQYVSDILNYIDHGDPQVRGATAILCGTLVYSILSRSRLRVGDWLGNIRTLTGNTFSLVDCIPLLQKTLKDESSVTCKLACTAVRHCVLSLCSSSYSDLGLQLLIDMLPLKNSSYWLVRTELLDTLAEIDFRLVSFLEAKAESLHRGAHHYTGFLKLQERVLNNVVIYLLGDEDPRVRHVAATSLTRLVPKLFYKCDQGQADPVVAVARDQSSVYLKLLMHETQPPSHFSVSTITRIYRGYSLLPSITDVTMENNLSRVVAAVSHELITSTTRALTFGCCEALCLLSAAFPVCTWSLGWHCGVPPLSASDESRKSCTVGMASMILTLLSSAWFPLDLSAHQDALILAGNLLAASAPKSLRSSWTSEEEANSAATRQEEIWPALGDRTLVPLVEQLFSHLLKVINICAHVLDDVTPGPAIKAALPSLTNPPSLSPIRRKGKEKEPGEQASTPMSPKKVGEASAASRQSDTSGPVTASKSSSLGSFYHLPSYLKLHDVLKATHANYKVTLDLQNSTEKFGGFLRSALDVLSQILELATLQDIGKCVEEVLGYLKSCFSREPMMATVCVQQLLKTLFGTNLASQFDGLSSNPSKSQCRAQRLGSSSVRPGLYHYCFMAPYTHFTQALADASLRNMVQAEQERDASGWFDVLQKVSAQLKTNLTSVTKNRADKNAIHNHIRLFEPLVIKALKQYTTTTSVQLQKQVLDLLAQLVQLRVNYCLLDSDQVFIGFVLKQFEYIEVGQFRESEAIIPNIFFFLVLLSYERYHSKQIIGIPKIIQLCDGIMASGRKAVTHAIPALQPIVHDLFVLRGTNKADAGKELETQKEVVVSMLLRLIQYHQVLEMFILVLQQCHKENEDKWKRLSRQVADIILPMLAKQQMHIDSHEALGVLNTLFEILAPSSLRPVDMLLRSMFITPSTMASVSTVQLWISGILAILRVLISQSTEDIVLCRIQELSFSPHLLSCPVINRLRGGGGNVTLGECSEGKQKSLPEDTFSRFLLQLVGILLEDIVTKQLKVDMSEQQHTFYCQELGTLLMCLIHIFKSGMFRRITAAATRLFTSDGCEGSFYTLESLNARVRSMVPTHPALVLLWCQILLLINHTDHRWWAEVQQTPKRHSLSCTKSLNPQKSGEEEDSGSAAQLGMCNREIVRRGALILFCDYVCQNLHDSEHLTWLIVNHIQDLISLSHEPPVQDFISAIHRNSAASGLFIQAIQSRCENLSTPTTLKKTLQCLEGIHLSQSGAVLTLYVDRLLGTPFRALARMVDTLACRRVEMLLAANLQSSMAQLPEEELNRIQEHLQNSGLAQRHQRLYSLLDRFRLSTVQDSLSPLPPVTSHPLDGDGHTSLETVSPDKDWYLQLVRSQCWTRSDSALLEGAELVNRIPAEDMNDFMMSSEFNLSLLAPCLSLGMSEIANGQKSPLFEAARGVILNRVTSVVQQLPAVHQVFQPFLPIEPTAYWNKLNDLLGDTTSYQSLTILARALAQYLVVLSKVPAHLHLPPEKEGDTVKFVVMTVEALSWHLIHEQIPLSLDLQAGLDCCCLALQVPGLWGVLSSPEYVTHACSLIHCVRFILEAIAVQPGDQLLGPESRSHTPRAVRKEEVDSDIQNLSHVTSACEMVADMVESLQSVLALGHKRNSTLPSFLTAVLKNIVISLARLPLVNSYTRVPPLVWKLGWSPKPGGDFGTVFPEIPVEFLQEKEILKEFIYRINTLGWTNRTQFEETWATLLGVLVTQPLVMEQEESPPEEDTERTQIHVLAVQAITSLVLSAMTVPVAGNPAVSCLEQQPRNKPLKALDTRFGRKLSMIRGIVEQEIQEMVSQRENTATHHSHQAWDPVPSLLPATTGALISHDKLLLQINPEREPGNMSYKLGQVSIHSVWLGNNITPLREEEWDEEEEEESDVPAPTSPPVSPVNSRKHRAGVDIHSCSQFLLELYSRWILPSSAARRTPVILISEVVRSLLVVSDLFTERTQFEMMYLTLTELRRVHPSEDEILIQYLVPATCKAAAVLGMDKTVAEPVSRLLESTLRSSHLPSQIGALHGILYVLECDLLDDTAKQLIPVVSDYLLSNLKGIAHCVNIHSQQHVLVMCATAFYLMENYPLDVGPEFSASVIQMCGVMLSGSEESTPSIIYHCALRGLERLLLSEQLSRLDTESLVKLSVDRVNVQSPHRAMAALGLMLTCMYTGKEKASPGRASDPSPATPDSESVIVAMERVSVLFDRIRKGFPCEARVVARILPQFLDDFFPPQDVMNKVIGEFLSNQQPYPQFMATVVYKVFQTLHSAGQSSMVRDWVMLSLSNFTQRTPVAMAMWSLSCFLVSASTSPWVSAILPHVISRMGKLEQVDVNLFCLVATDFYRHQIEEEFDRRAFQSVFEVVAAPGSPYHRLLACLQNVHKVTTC
Structure (SMILES),levels of mutant ATXN1 [1],level of mHTT in cortical neurons [3],mutant ATXN3 protein level [5],loss of processes and shrinkage of HD neurons after removal of BDNF [8],wild-type ATXN3 protein level [10],level of the protein containing expanded polyglutamine (Q72-GFP) [11],level of the protein containing the shorter polyglutamine (Q25-GFP) [12],also measured
"Cc1ccc(C(=O)N(CCCN)[C@@H](c2nc3cc(Cl)ccc3c(=O)n2Cc2ccccc2)C(C)C)cc1 [compound 1, ispinesib]",Decreased levels,reduced,decrease,significantly improved,no decrease,effectively reduced,did not reduce,"level of wtHTT in cortical neurons [2]: hardly affected; mHTT levels in transgenic Drosophilae [4]: reduced; Kon [6]: 6.43e-05 min/nM; wtHTT levels in cortical neurons [7]: did not reduce; mHTT levels in HD patient iPSC-derived neurons ([9]; neurons Q47, HTRF 2B7/MW1, method similar to 5.1): Decreased mHTT levels"
O=c1cc(-c2ccccc2)c2ccc(O)c(O)c2o1 [compound 6],Decreased levels,–,–,–,–,–,–,–
CC(=O)Nc1cc2ccccc2oc1=O [compound 5],–,–,–,–,–,–,–,"reduction of mHTT levels in HD patient iPSC-derived neurons ([9]; HTRF 2B7/MW1, same method as for compounds 1 and 2): approximately 26.8%"
O=c1cc(-c2ccccc2)c2c(O)cc(O)cc2o1 [compound 2],Decreased levels,reduced,decrease,significantly improved,no decrease,effectively reduced,did not reduce,binding affinity with Q25-GFP [13]: no binding affinity; concentration at 2 h [14]: 9.48 ng/g; mHTT level in cortices [15]: significantly reduced; level of mHTT in HD patient immortalized fibroblasts [16]: reduced; levels of mHTT in the cortices [17]: reduced; levels of mHTT in the striata [17]: reduced; mHTT aggregates in the cortices [18]: No increase in mHTT aggregates; binding with normal ATXN3 protein (MBP-ATXN3-Q28) [19]: did not bind
"COc1ccc2c(c1)/C(=C/c1cnc[nH]1)C(=O)N2 [compound 4, Su9516]",Decreased levels,–,–,–,–,–,–,–
